From patent US6287813A, “Antibiotic-based gene regulation system” (Cistronics Cell Technology GmbH, priority 1999, dated 2001)

How the values were obtained:
[1] = target: T1, PIT/PPIR system (Streptomyces coelicolor, UniProt Q9ADN3); assay: SEAP reporter assay, CHO-K1 cotransfected with pMF156 (PIT) and pMF172 (PPIR-SEAP); format: cell-based
T1 construct: pMF156/pTWIN in CHO cells, PPIR-SEAP or GFP reporter
T1 sequence (Q9ADN3 1-252): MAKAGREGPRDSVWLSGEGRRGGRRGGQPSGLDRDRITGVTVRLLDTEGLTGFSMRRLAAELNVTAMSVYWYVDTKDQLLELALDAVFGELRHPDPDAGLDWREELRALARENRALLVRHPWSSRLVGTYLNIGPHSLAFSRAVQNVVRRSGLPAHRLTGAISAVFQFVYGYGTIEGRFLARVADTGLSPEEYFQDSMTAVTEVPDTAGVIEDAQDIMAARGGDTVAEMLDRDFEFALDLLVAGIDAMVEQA
Procedure: PIT, the fusion protein of Pip and the VP16 C-terminal transactivation domain of Herpes simplex (Triezenberg et al., 1988, Genes Dev. 2, 718-729) was constructed by amplifying the S. coelicolor Pip from pGemT::Epip4 with oligos:
Chinese hamster ovary cells (CHO-K1, ATCC: CCL 61), Baby hamster kidney cells (BHK-21, ATCC: CRL-8544), and HeLa cells (ATCC: CRL-7923) as well as stable cell lines CHO-PIT1, CHO-PIT2, CHO-TWIN195, CHO-TWIN1108 and CHO-PIT1-SEAP were cultured as described before (Fussenegger et al., 1998, Nat. Biotechnol. 16,468-472) in the presence of appropriate antibiotics: G418 400 μg/ml; zeocin 100 μg/ml. Optimized CaPO4 protocols were used for high efficiency transient transfection of all cell lines (id). Transient transfected cells were routinely analyzed after 48 h for GFP or SEAP expression using fluorescence microscopy and p-nitrophenolphosphate-based light absorbance timecourse, respectively, as described before (Fussenegger et al., 1998, Nat. Biotechnol. 16, 468-472; Berger et al., 1988, Gene 66, 1-10 b). For construction of stable CHO-PIT and CHO-TWIN cell lines, CHO-K1 was cotransfected either with pMF156 or pTWIN1 and pSV2neo carrying the G418 resistance gene. CHO-PIT1-SEAP was constructed by cotransfection of pMF172 and pZeoSV2 (Invitrogen). For assessment of dose-response characteristics of PPIR -regulated gene expression, CHO-PIT1-SEAP were cultured at cell densities of 150,000/ml for 48 at various PI concentrations. The mixed populations were cloned using FACS-mediated single-cell-sorting (FACStar^Plus; Beckton Dickinson). Gel retardation assay were performed as described (Salah-Bey et al., 1995, supra) using Pip purified from an overproducing strain of E. coli. Pip (0.02 pmol) was titrated with a range of antibiotic concentrations in a reaction volume of 20 μl. Protein solutions were pre-incubated at room temperature for 15 min. in the absence or presence of PI or its derivative quinupristin in a buffer containing 10 mM Tris (pH 7.8), 10 mM MgCl2, 300 mM NaCl, 2 mM DTT and 10% glycerol. An EcoRI-HindII PPTR fragment (0.02 pmol) containing three Pip binding sites (radiolabelled using α-^32 P)dATP was added and incubated for 15 min. To minimize nonspecific protein binding and increase protein stability, 2 μg of poly dIdC and 20 μg BSA were included in the incubation mix. Protein-DNA complexes were separated on 5% polyacrylamide,TBE gels and visualized by autoradiography.
Five different sources of pristinamycin were used: The two therapeutic forms Pyostacin™ and Synercid™, pristinamycin discs, and the single compounds pristinamycin I (PI) and pristinamycin II (PII). Pyostacin™ pills (500 mg) were ground in a mortar and solubilized in DMSO or water at a stock concentration of 50 mg/ml. Synercid™ (RP 59500; Lot Nr. CB06253) was provided by Aventis in injection-ready vials containing 500 mg lyophilized antibiotic which was reconstituted in 5 ml of 5% glucose solution and frozen at -20° C. Individual pristinamycin compounds PI and PII (identical to virginiamycin M1 (VM1); Sigma ref. V2753) were solubilized in DMSO at a concentration of 50 mg/ml and kept at -20° C. Antibiotic discs containing 15 μg pristinamycin or virginiamycin (bioMerieux, ref. 54552; bioMerieux, ref. 54612) were soaked in 1 ml cell culture medium at 4i C for up to 24 h. […] The concentration of individual streptogramin components was calculated based on their fixed 70:30 ratio (w/w; PII/VM1 /dalfopristin: PI/VS1 /quinupristin). […]

[2] = test system: CHO cells; assay: CHO cell morphology, growth and toxicity; format: cell-based, Chinese hamster
Procedure: However, pristinamycin has no influence on expression levels of PSV40 or PCMV -driven SEAP expression constructs (data not shown). […] Similar PI-dependent gene expression using the PIT/PPIR system has also been observed in BHK-21 and HeLa cells (not shown). […] This is the same order of magnitude as tissue concentrations reached in antibiotic therapy. Only much higher PI concentrations (above 50 μg/ml) were toxic for CHO cells.

pristinamycin I [PI]
SEAP readout (slope of the p-nitrophenolphosphate-based light absorbance time courses) ([1]; +PI (2 μg/ml), 48 hr post transfection, CHO + pMF156 + pMF172): 0.03 ± 0.002 | Downregulation of PIT/PPIR-mediated SEAP expression ([1]; CHO-K1, 2 μg/ml): effective downregulation | SEAP Production (%) ([1]; inducer 2 μg/ml, assayed 48 hr later, no inducer = 100): 7.90 ± 1.2% | Effects on CHO cell morphology and growth ([2]; PI 2 μg/ml): No deleterious effects | PI concentration toxic for CHO cells ([2]; hamster, cho cells): above 50 μg/ml
